Among the data in patent US7348323B2, “Pyrrolo [2,3-c] pyridine derivatives” (Hoffmann-La Roche Inc., priority 2005, dated 2008) are Ki values, retold here.

SMILES strings stand for the structures.

T1 sequence (Q9Y5N1 whole entry): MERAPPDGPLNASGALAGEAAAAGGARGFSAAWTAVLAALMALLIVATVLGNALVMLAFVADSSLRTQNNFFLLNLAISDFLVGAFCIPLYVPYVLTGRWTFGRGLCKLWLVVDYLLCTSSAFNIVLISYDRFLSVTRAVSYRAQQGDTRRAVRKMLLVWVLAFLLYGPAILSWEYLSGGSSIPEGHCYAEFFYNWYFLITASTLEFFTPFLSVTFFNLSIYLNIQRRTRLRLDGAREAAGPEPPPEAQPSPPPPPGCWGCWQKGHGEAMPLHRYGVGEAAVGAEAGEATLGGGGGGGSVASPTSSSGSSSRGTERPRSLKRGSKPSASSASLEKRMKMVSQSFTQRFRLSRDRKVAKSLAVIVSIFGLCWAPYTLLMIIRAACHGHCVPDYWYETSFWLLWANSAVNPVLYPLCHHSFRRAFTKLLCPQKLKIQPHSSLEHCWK

This experiment addresses T1, histamine 3 receptor (H3R) (Homo sapiens, UniProt Q9Y5N1).
T1 construct: expressed in transfected cells; host or cells: CHO cells (HR3-CHO)
Briefly: Competition binding assay with 3H-(R)α-methylhistamine on membranes of the human HR3-CHO cell line. To be noted: membrane of the human HR3-CHO cell line; 3H(R)α-Methylhistamine 1 nM; Ki calculated from IC50 by Cheng-Prusoff equation. As for the experimental part:
Binding Assay with ^3H-(R)α-methylhistamine
Saturation binding experiments were performed using HR3-CHO membranes prepared as described in Takahashi, K, Tokita, S., Kotani, H. (2003) J. Pharmacol. Exp. Therapeutics 307, 213-218.
An appropriate amount of membrane (60 to 80 μg protein/well) was incubated with increasing concentrations of ^3H(R)α-Methylhistamine di-hydrochloride (0.10 to 10 nM). Non specific binding was determined using a 200 fold excess of cold (R)α-Methylhistamine dihydrobromide (500 nM final concentration). The incubation was carried out at room temperature (in deep-well plates shaking for three hours). The final volume in each well was 250 μl. The incubation was followed by rapid filtration on GF/B filters (pre-soaked with 100 μl of 0.5% PEI in Tris 50 mM shaking at 200 rpm for two hours). The filtration was made using a cell-harvester and the filter plates were then washed five times with ice cold washing buffer containing 0.5 M NaCl. After harvesting, the plates were dried at 55° C. for 60 min, then we added scintillation fluid (Microscint 40, 40 microl in each well) and the amount of radioactivity on the filter was determined in Packard top-counter after shaking the plates for two hours at 200 rpm at room temperature.
Binding Buffer: 50 mM Tris-HCl pH 7.4 and 5 mM MgCl2x6H2O pH 7.4. Washing Buffer: 50 mM Tris-HCl pH 7.4 and 5 mM MgCl2x6H2O and 0.5 M NaCl pH 7.4.
Indirect measurement of affinity of H3R inverse agonists: twelve increasing concentrations (ranging from 10 μM to 0.3 nM) of the selected compounds were always tested in competition binding experiments using membrane of the human HR3-CHO cell line. An appropriate amount of protein, e.g. approximately 500 cpm binding of RAMH at Kd, were incubated for 1 hour at room temperature in 250 μl final volume in 96-well plates in presence of ^3H(R)α-Methylhistamine (1 nM final concentration=Kd). […]
All compounds were tested at a single concentration in duplicates. […] Ki's were calculated from IC50 based on Cheng-Prusoff equation (Cheng, Y, Prusoff, W H (1973) Biochem Pharmacol 22, 3099-3108).
Regarding `CCCNC(=O)c1cc2cc(N3CCN(C4CCCC4)CC3)ncc2[nH]1` [Example 13, 5-(4-cyclopentyl-piperazin-1-yl)-1H-pyrrolo[2,3-c]pyridine-2-carboxylic acid propylamide], the Ki was 27.4 nM. Regarding `CC(C)N1CCN(c2cc3cc(C(=O)N4CCC(F)(F)CC4)[nH]c3cn2)CC1` [Example 27, (4,4-difluoro-piperidin-1-yl)-[5-(4-isopropyl-piperazin-1-yl)-1H-pyrrolo[2,3-c]pyridin-2-yl]-methanone], the Ki is 63.1 nM. For `O=C(c1cc2cc(N3CCN(C4CCCC4)CC3)ncc2[nH]1)N1CCCC1` [Example 1, [5-(4-Cyclopentyl-piperazin-1-yl)-1H-pyrrolo[2,3-c]pyridin-2-yl]-pyrrolidin-1-yl-methanone] the value was 33 nM.
